Results on one compound are retold here after US7749540B2, “Compositions comprising modafinil compounds” (Cephalon, Inc., priority 2000, dated 2010).

For one data set, the system named is mice. Conditions: single administration; cited from earlier work.
For the next data set, the system named is monkeys. Conditions: single administration; cited from earlier work.
Data set [1] can be described thus: Water and lipid solubility of modafinil (observation in background).

Turning to `NC(=O)C[S+]([O-])C(c1ccccc1)c1ccccc1` (stereo not drawn) [modafinil, 2-(benzhydryl-sulfinyl)acetamide], the locomotor activity entry with mice is “increased locomotor activity”. Further, the nocturnal activity entry with monkeys was “increased nocturnal activity”. In addition, the “water and lipid solubility” value in data set [1] is given as “very poor”.
